Measurements taken from US6455469B1, “Herbicidal composition” (Ishihara Sangyo Kaisha, Ltd., priority 2000, dated 2002).

How the values were obtained:
Format in all cases: in vivo
[1] = test system: six broadleaf weeds (CASOB, IPOHE, ABUTH, AMARE, CHEAL, XANST); test: Greenhouse pre-emergence test, mean control of six broadleaf weeds; settings: soil surface spray 1 day after planting, visual rating 0-100% after two weeks, grass herbicides 1000 g/ha, atrazine 1680 g/ha, isoxaflutole 78 g/ha, B-128 125 g/ha
Description: (§1) Seeds of weed species were sown in 10 cm square plastic pots containing a 3:2:1 sand:soil:peat mixture. Species included six broadleaf weeds, CASOB (Cassia obtusifolia, L., sicklepod), IPOHE (Ipomoea hederacea, L., ivyleaf morningglory), ABUTH (Abutilon theophrastii, velvetleaf, AMARE (Amaranthus retroflexus, redroot pigweed), CHEAL (Chenopodium album, lambsquarters) and XANST (Xanthium strumarium, cocklebur ), four grass weeds, SORHA (Sorghum halepense, johnsongrass), SETVI (Setaria viridis, green foxtail), ECHCG (Echinochloa crus-galli, bamyardgrass), and DIGSA (Digitria sanguinalis, large crabgrass) and four crops species, Zea mays, Glycine max L. Triticum aestivum, and Oryza sativa. Herbicide treatments were applied in water carrier via automated track sprayer to the soil surface of these pots 1 day after planting. The sprayer was calibrated to deliver the material in a volume of 187 l/ha through a TJ8001E spray nozzle at a pressure of 40 PSI.
(§2) Treatments included the compounds of formula I numbers 1, 15, 16 and 23, the commercial grass herbicides metolachlor S (Dual II Magnum®), acetochlor (Harness®), alachlor (Lasso MT®) alone and in combination with three broadleaf herbicides, atrazine, isoxaflutole and compound B-128 (Table 2). All grass herbicides (compounds 1, 15, 16, 23, metolachlor S, acetochlor and alachor were applied at a rate of 1000 g/ha. The broadleaf herbicides were applied at 1680 g/ha for atrazine, 78 g/ha for isoxaflutole and 125 g/ha for B-128.
(§3) After treatment, pots were returned to a greenhouse where they were watered and held in good growth conditions for two weeks. At the end of two weeks, herbicidal efficacy was evaluated visually using a rating system from 0-100%, where 0=no inhibition of growth, and 100=complete death of all plants in the testing unit. Results are reported in table 3 as the mean control of all six broadleaf weeds, mean control of all four grass weeds and the phytotoxicity to maize.

[2] = test system: maize; test: Greenhouse pre-emergence test, phytotoxicity to maize
Description: as §1, with “PSI. […]” for “PSI.”
as §3, with “Results are reported in table 3 as the mean control of all six broadleaf weeds, mean control of all four grass weeds and the phytotoxicity to maize.” left out

[3] = test system: four grass weeds (SORHA, SETVI, ECHCG, DIGSA); test: Greenhouse pre-emergence test, mean control of four grass weeds; settings: soil surface spray 1 day after planting, visual rating 0-100% after two weeks, grass herbicides 1000 g/ha, atrazine 1680 g/ha, isoxaflutole 78 g/ha, B-128 125 g/ha
Description: as §1, §2, §3

[4] = test system: maize; test: Field trials, phytotoxicity to maize; settings: grass herbicides 1000 g/ha, atrazine 1680 g/ha, B-128 150 g/ha
Description: (§4) Two field trials were established on contrasting soil types. Trial 1 was on a soil with low organic matter and high sand content, and trial 2 was on a clay loam soil with moderate amounts of organic matter. In both cases, the soil was overseeded (followed by light tillage) with seeds of Amaranthus retroflexus, Abutilon theophrasti, Chenopodium album, Ipomoea hederacea, and Setaria viridis to ensure consistent weed populations. Maize was planted with 30 inches between rows. Immediately after planting the maize, herbicidal treatments were applied using a boom sprayer equipped with Tee Jet 110-015 nozzles applying the spray solution at a rate of 187 l/hectare. Untreated check plots were included as the basis for comparison of herbicidal efficacy.
(§5) Treatments included the compound of formula I number 16, the commercial grass herbicides metolachlor S (Dual II Magnum®), acetochlor (Harness®) and dimethenamid (Frontier®) alone and in combination with two broadleaf herbicides, atrazine and B-128. All grass herbicides (compound 16, metolachlor S, acetochlor and dimethenamid) were applied at a rate of 1000 g/ha. The broadleaf herbicides were applied at 1680 g/ha for atrazine and 150 g/ha for B-128.
(§6) Observations on percent weed control and phytotoxicity to maize were made at 35 days after treatment for field trial 1 and 21 days after application for field trial 2. All visual estimates were made in comparison to untreated check plots. Results reported are the mean control of broadleaf weeds, and percent control for Setaria viridis, the predominant grassy weed in this experiment.

[5] = test system: broadleaf weeds; test: Field trials, mean control of broadleaf weeds; settings: grass herbicides 1000 g/ha, atrazine 1680 g/ha, B-128 150 g/ha
Description: as §4, §5, §6

[6] = test system: Setaria viridis; test: Field trials, control of Setaria viridis; settings: grass herbicides 1000 g/ha, atrazine 1680 g/ha, B-128 150 g/ha
Description: as §4, §5, §6

[7] = test system: Amaranthus retroflexus, Abutilon theophrasti, Chenopodium album, Ipomoea hederacea, and Setaria viridis; test: Field trials, overall herbicidal performance in words
Description: as §4, §5
Observations on percent weed control and phytotoxicity to maize were made at 35 days after treatment for field trial 1 and 21 days after application for field trial 2. […]

[8] = field trial 1, low organic matter, high sand content soil, 35 days after application
[9] = field trial 2, moderate organic matter, high clay content soil, 21 days after application

`C#CCN(C(=O)CCl)c1c(C)cccc1C` [Cpd 23] was tested, and the broadleaf control [1] was 33%, the “phytotoxicity to maize (in words)” value ([2]; in vivo) was “moderately more phytotoxic” and the Grass control [3] was 100%.

For `CCc1cccc(C)c1N(C(=O)CCl)[C@@H](C)COC` [Metolachlor S, (S)-2-chloro-N-(2-ethyl-6-methylphenyl)-N-(2-methoxy-1-methylethyl)acetamide], the broadleaf control [1] was 41%, the Phytotoxicity ([2]; phytotoxicity to maize, greenhouse, visual rating 0-100% after two weeks, grass herbicides 1000 g/ha, atrazine 1680 g/ha, isoxaflutole 78 g/ha, B-128 125 g/ha) was 0% and the Phytotoxicity [4, 8] was 0%. It also gave a Phytotoxicity [4, 9] of 1%, a broadleaf control [5, 8] of 40% and a broadleaf control [5, 9] of 18%. The S. viridis control [6, 8] was 100%, the S. viridis control [6, 9] was 60% and the Grass control [3] was 100%.

In the case of `C#CCN(C(=O)CCl)c1c(CC)cccc1CC` [Cpd 16], the broadleaf control [1] is reported as 53%, the “performance (in words)” value ([7]; higher organic, high clay soil, compared with the three standards) is reported as “relatively better than two of the three standards” and the “efficacy (in words)” value ([7]; sandy, low organic matter soil, combined with atrazine or B-128) is reported as “equal efficacy as other herbicides”. It also gave a Phytotoxicity [4, 8] of 0%, a Phytotoxicity [4, 9] of 2% and a broadleaf control [5, 8] of 33%. For the same compound, the broadleaf control [5, 9] was 24%, the S. viridis control [6, 8] was 96% and the S. viridis control [6, 9] was 75%. The Grass control [3] was 100%.

Work on `CCOCN(C(=O)CCl)c1c(C)cccc1CC` [acetochlor, 2-chloro-N-ethoxymethyl-6′-ethylacet-o-toluidide] yielded a broadleaf control [1] of 75%, a broadleaf control [5, 8] of 50% and a broadleaf control [5, 9] of 36%. It also gave a S. viridis control [6, 8] of 99%, a S. viridis control [6, 9] of 87% and a Grass control [3] of 100%.

In the case of `CCc1cccc(CC)c1N(CC#N)C(=O)CCl` [Cpd 1], the broadleaf control [1] is reported as 22% and the Grass control [3] is reported as 100%.

In the case of `COCC(C)N(C(=O)CCl)c1c(C)csc1C` (centres unmarked) [dimethenamid, 2-chloro-N-[(1-methy-2-methoxyl)ethyl]-N-(2,4-dimethyl-3-thienyl)-acetamide], the broadleaf control [1] is reported as 68%, the broadleaf control [5, 8] is reported as 44% and the broadleaf control [5, 9] is reported as 26%. The S. viridis control [6, 8] was 100%, the S. viridis control [6, 9] was 86% and the Grass control [3] was 100%.

In the case of `C#CCN(C(=O)CCl)c1c(C)cccc1CC` [Cpd 15], the broadleaf control [1] is reported as 32% and the Grass control [3] is reported as 100%.
